Measured values reported in a compilation of properties of binary mixtures (doi:10.1016/j.molliq.2022.119221).

Experiment: xn = mol fraction of the nth substance listed
Conditions: 100 kPa

OCCO + CCCC[n+]1ccn(C)c1.O=S(=O)([N-]S(=O)(=O)C(F)(F)F)C(F)(F)F
viscosity [mPa·s]
Conditions | 293.15 K | 298.15 K | 303.15 K | 308.15 K | 313.15 K | 318.15 K | 323.15 K | 328.15 K | 333.15 K | 338.15 K
x2 = 0.1 | 30.7 | 24.6 | 19.2 | 15.2 | 12.5 | 10.4 | 8.87 | 7.66 | 6.65 | 5.82
x2 = 0.2002 | – | – | 21.5 | 17.6 | 14.8 | 12.5 | 10.7 | 9.27 | – | 7.1
x2 = 0.2997 | 37.9 | 29.2 | 22.8 | – | – | – | – | 9.9 | 8.68 | 7.64
x2 = 0.4015 | – | 31.4 | 24.5 | 19.7 | 16.5 | 14.1 | 12.1 | – | 9.16 | 8.01
x2 = 0.4993 | 42 | 32.5 | 25.1 | 20.4 | 17.2 | 14.7 | 12.6 | 10.9 | 9.57 | 8.48
x2 = 0.6007 | 43 | 33.3 | 26.2 | 21.7 | 17.8 | 15 | 13 | – | 9.8 | 8.61
x2 = 0.7003 | 42 | 33.7 | 26.3 | – | 18.4 | – | 13.4 | 11.6 | 10.1 | 8.93
x2 = 0.7993 | 42.4 | 34.6 | 28.2 | 23.8 | 20.2 | 17.2 | – | 12.9 | – | –
x2 = 0.9 | 48.7 | 39.8 | 32.8 | 27.3 | 23.1 | 19.7 | – | – | 12.9 | 11.4
